ChEMBL document CHEMBL4028817, “Indole-TEMPO conjugates alleviate ischemia-reperfusion injury via attenuation of oxidative stress and preservation of mitochondrial function” (Bioorg Med Chem, 2017)
Activity calls are given as the source filed them. No cut-off for these calls is given here.

Tests used:
[1] = system: Mus musculus; assay: Anti-inflammatory activity in ICR mouse assessed as inhibition of xylene induced ear edema at 20 mg/kg pretreated orally for 30 mins followed by xylene challenge measured after 2 hrs relative to control; format: functional; details: po
[2] = system: Mus musculus; assay: Anti-inflammatory activity in xylene induced ICR mouse ear edema model assessed as edema weight at 20 mg/kg, po pretreated 30 mins followed by xylene challenge measured after 2 hrs (reference value: 4.07 +/- 0.51 mg); format: functional
[3] = system: Mus musculus; assay: Anti-inflammatory activity in ICR mouse assessed as inhibition of xylene induced ear edema at 0.10 mmol/kg pretreated orally for 30 mins followed by xylene challenge measured after 2 hrs relative to control; format: functional; details: po
[4] = system: Mus musculus; assay: Anti-inflammatory activity in xylene induced ICR mouse ear edema model assessed as edema weight at 0.10 mmol/kg, po pretreated 30 mins followed by xylene challenge measured after 2 hrs (reference value: 4.07 +/- 0.51 mg); format: functional
[5] = system: Mus musculus; assay: Toxicity in mouse assessed as tail bleeding time at 0.50 mmol/kg, po administered 30 mins prior to tail transection measured every 30 secs (reference value: 120.5 +/- 7.9 sec); format: organism-based; details: in vivo
[6] = system: Mus musculus; assay: Toxicity in mouse assessed as tail bleeding time at 0.50 mmol/kg, po administered 45 mins prior to tail transection measured every 30 secs (reference value: 119.8 +/- 8.4 sec); format: organism-based; details: in vivo
[7] = system: Mus musculus; assay: Toxicity in mouse assessed as tail bleeding time at 0.50 mmol/kg, po administered 60 mins prior to tail transection measured every 30 secs (reference value: 120.4 +/- 7.9 sec); format: organism-based; details: in vivo
[8] = system: Mus musculus; assay: Toxicity in mouse assessed as tail bleeding time at 0.50 mmol/kg, po administered 90 mins prior to tail transection measured every 30 secs (reference value: 119.3 +/- 7.7 sec); format: organism-based; details: in vivo
[9] = system: HUVEC; assay: Protection against simulated ischemia/reperfusion injury-induced cell death in HUVEC assessed as increase in cell viability at 30 ug/ml treated for 12 hrs under normoxic condition prior to simulated ischemia for 2 hrs followed by compound washout measured 3 hrs post reperfusion; format: functional, cell-based; details: Homo sapiens
[10] = system: HUVEC; assay: Protection against simulated ischemia/reperfusion injury induced mitochondrial oxidative damage in HUVEC assessed as decrease in mitochondrial reactive oxygen species level at 30 ug/ml pretreated for 12 hrs followed by compound washout and subsequent ischemia simulation for 2 hrs in presence of compound prior to 3 hrs reperfusion under drug free medium by MitoProbe based confocal microscopic analysis; format: functional, cell-based; details: Homo sapiens
[11] = system: HUVEC; assay: Protection against simulated ischemia and reperfusion injury induced mitochondrial oxidative damage in HUVEC assessed as reduction in cytochrome c release at 30 ug/ml treated for 12 hrs under normoxic condition prior to simulated ischemia for 2 hrs followed by compound washout measured 3 hrs post reperfusion by MitoProbe based immuno-fluorescence assay (reference value: 71.2 +/- 4.5%); format: functional, Homo sapiens; design: scale not given: the % may be the effect or the level left
[12] = system: Rattus norvegicus; assay: (§1) Protection against ischemia/reperfusion induced Wistar rat intestinal injury model assessed as reduction in denudation of villous tips at 30 mg/kg administered as bolus dose pretreated for 5 mins followed by 12 hrs reperfusion and subsequent compound treatment at 10 mg/kg administered at 1 hr interval during reperfusion period by hematoxylin-eosin/trichrome/NADH-diaphorase staining based histopathological analysis; format: functional, organism-based
[13] = system: Rattus norvegicus; assay: as §1, with “ischemia/reperfusion-induced” for “ischemia/reperfusion induced”, “well-preserved glandular architecture” for “reduction in denudation of villous tips”, “addition” for “treatment”; format: functional, organism-based
[14] = system: Rattus norvegicus; assay: Protection against ischemia/reperfusion-induced Wistar rat intestinal injury model assessed as reduction in lipid peroxidation by measuring lipid peroxide levels at 30 mg/kg administered as bolus dose pretreated for 5 mins followed by 12 hrs reperfusion and subsequent compound addition at 10 mg/kg administered at 1 hr interval during reperfusion period measured at 1.5 to 12 hrs post reperfusion by spectrophotometric method; format: functional, organism-based
[15] = system: Rattus norvegicus; assay: Protection against ischemia/reperfusion-induced Wistar rat intestinal injury model assessed as effect on TNFalpha levels at 30 mg/kg administered as bolus dose pretreated for 5 mins followed by 12 hrs reperfusion and subsequent compound addition at 10 mg/kg administered at 1 hr interval during reperfusion period by ELISA (reference value: 62.9 +/- 8.7 pg/ml); format: functional
[16] = system: Rattus norvegicus; assay: Protection against ischemia/reperfusion-induced Wistar rat intestinal injury model assessed as reduction in mitochondrial oxidative damage at 30 mg/kg administered as bolus dose pretreated for 5 mins followed by 12 hrs reperfusion and subsequent compound addition at 10 mg/kg administered at 1 hr interval during reperfusion period by Mitoprobe staining based assay; format: functional, organism-based
[17] = system: HUVEC; assay: Protection against simulated ischemia/reperfusion injury induced mitochondrial oxidative damage in HUVEC assessed as increase in tubular mitochondrial cells at 30 ug/ml pretreated for 12 hrs followed by compound washout and subsequent ischemia simulation for 2 hrs in presence of compound prior to 3 hrs reperfusion under drug free medium by MitoProbe based confocal microscopic analysis; format: functional, cell-based; details: Homo sapiens
[18] = system: Rattus norvegicus; assay: as §1, with “induecd” for “induced”, “decrease” for “reduction”, “mucosal neutrophil infiltration” for “denudation of villous tips”, “addition” for “treatment”; format: functional, organism-based
[19] = system: Mus musculus; assay: Anti-inflammatory activity in ICR mouse assessed as inhibition of xylene induced ear edema pretreated orally for 30 mins followed by xylene challenge measured after 2 hrs; format: functional
[20] = system: Mus musculus; assay: Anti-inflammatory activity in ICR mouse assessed as inhibition of xylene induced ear edema at 0.02 mmol/kg, po pretreated for 30 mins followed by xylene challenge measured after 2 hrs; format: functional, organism-based

Structure (SMILES) | inhibition in vivo at 20 mg/kg [1] | Activity [2] | inhibition in vivo at 100 µmol/kg [3] | Activity [4] | Time [5] | Time [6] | Time [7] | Time [8] | Activity [9] | Activity [10] | Activity [11] | Activity [12] | Activity [13] | Activity [14] | Activity [15] | Activity [16] | Activity [17] | Activity [18] | inhibition [19] | inhibition [20]
CC(=O)Oc1ccccc1C(=O)O [ASPIRIN] | 47.1% | 2.15 mg | – | – | – | – | – | – | – | – | – | – | – | – | – | – | – | – | – | –
CC1(C)CC(n2cc(CNC(=O)CC[C@@H](NC(=O)[C@@H]3Cc4c([nH]c5ccccc45)CN3C(=O)[C@@H]3Cc4c([nH]c5ccccc45)CN3)C(=O)NCc3cn(C4CC(C)(C)N([O])C(C)(C)C4)nn3)nn2)CC(C)(C)N1[O] | – | – | 80.3% | 0.8 mg | 116.6 s | 117.1 s | 119 s | 118.3 s | Active | Active | 23.1% | Active | Active | Active | 19 pg/mL | Active | Active | Active | Dose-dependent effect | Active
